Source: patent US20230165251A1, “SUBSTITUTED TOLYL FUNGICIDES AND THEIR MIXTURES” (FMC Corporation, priority 2020, published 2023)

What was measured:
Phakopsora pachyrhizi = test: Test D: preventive spray on soybean seedlings, Asian soybean rust; format: in vivo; details: Rate 10 ppm
Text: (§1) General protocol for preparing test suspensions for Tests A-F: the test compounds were first dissolved in acetone in an amount equal to 3% of the final volume and then suspended at the desired concentration (in ppm) in acetone and purified water (50/50 mix by volume) containing 250 ppm of the surfactant PEG400 (polyhydric alcohol esters). The resulting test suspensions were then used in Tests A-F.
The test solution was sprayed to the point of run-off on soybean seedlings. The following day the seedlings were inoculated with a spore suspension of Phakopsora pachyrhizi (the causal agent of Asian soybean rust) and incubated in a saturated atmosphere at 22° C. for 24 h and then moved to a growth chamber at 22° C. for 8 days, after which time visual disease ratings were made.
(§2) A rating of 100 indicates 100% disease control and a rating of 0 indicates no disease control (relative to the controls). A dash (-) indicates the compound was not tested.

[1] = system: Puccinia recondita f. sp. tritici; test: Test B: preventive spray on wheat seedlings, wheat leaf rust; format: in vivo; details: Rate 10 ppm
Text: as §1
The test solution was sprayed to the point of run-off on wheat seedlings. The following day the seedlings were inoculated with a spore suspension of Puccinia recondita f. sp. tritici (the causal agent of wheat leaf rust) and incubated in a saturated atmosphere at 20° C. for 24 h, and then moved to a growth chamber at 20° C. for 7 days, after which time disease ratings were made.
as §2

Compound: COC(=O)NCc1cc(-c2ccn(-c3c(F)cc([N+](=O)[O-])cc3Cl)n2)ccc1C [compound 37]
- Test D disease control rating (Phakopsora pachyrhizi): 0%
- Test B disease control rating [1]: 26%

Compound: COC(=O)NCc1cc(-c2ccn(-c3c(C)cc(N)cc3C)n2)ccc1C [compound 38]
- Test D disease control rating (Phakopsora pachyrhizi): 0%
- Test B disease control rating [1]: 0%

Compound: COC(=O)NCc1cc(-c2ccn(-c3c(F)cc(N)cc3Cl)n2)ccc1C [compound 39]
- Test D disease control rating (Phakopsora pachyrhizi): 0%
- Test B disease control rating [1]: 0%

Compound: COC(=O)NCc1cc(-c2ccn(-c3c(C)cc(OC)cc3C)n2)ccc1C [compound 40]
- Test D disease control rating (Phakopsora pachyrhizi): 99%
- Test B disease control rating [1]: 0%

Compound: COC(=O)NCc1cc(-c2ccn(-c3c(Cl)cccc3Cl)n2)ccc1C [compound 44]
- Test D disease control rating (Phakopsora pachyrhizi): 100%
- Test B disease control rating [1]: 68%

Compound: COC(=O)NCc1cc(-c2ccn(-c3c(F)cccc3I)n2)ccc1C [compound 45]
- Test D disease control rating (Phakopsora pachyrhizi): 100%
- Test B disease control rating [1]: 0%

Compound: COC(=O)NCc1cc(-c2ccn(-c3c(F)cccc3Br)n2)ccc1C [compound 46]
- Test D disease control rating (Phakopsora pachyrhizi): 100%
- Test B disease control rating [1]: 68%

Compound: COC(=O)NCc1cc(-c2ccn(-c3c(F)cccc3Cl)n2)ccc1C [compound 47]
- Test D disease control rating (Phakopsora pachyrhizi): 100%
- Test B disease control rating [1]: 74%

Compound: COC(=O)NCc1cc(-c2ccn(-c3c(C)cc(Br)cc3C)n2)ccc1C [compound 48]
- Test D disease control rating (Phakopsora pachyrhizi): 99%
- Test B disease control rating [1]: 68%

Compound: COC(=O)NCc1cc(-c2ccn(-c3c(C)cc(Cl)cc3C)n2)ccc1C [compound 49]
- Test D disease control rating (Phakopsora pachyrhizi): 99%
- Test B disease control rating [1]: 68%

Compound: COC(=O)NCc1cc(-c2ccn(-c3c(F)cc(Br)cc3Cl)n2)ccc1C [compound 50]
- Test D disease control rating (Phakopsora pachyrhizi): 100%
- Test B disease control rating [1]: 100%

Compound: COC(=O)NCc1cc(-c2ccn(-c3c(F)cc(Cl)cc3Cl)n2)ccc1C [compound 51]
- Test D disease control rating (Phakopsora pachyrhizi): 100%
- Test B disease control rating [1]: 100%

Compound: COC(=O)NCc1cc(-c2ccn(-c3c(Br)cccc3I)n2)ccc1C [compound 52]
- Test D disease control rating (Phakopsora pachyrhizi): 99%
- Test B disease control rating [1]: 0%

Compound: COC(=O)NCc1cc(-c2ccn(-c3c(Cl)cc([N+](=O)[O-])cc3Cl)n2)ccc1C [compound 54]
- Test D disease control rating (Phakopsora pachyrhizi): 0%
- Test B disease control rating [1]: 0%

Compound: COC(=O)NCc1cc(-c2ccn(-c3c(Cl)cc(N)cc3Cl)n2)ccc1C [compound 55]
- Test D disease control rating (Phakopsora pachyrhizi): 0%
- Test B disease control rating [1]: 0%

Compound: COC(=O)NCc1cc(-c2ccn(-c3c(Cl)cc(Br)cc3Cl)n2)ccc1C [compound 56]
- Test D disease control rating (Phakopsora pachyrhizi): 100%
- Test B disease control rating [1]: 80%

Compound: COC(=O)NCc1cc(-c2ccn(-c3c(Cl)cc(Cl)cc3Cl)n2)ccc1C [compound 57]
- Test D disease control rating (Phakopsora pachyrhizi): 100%
- Test B disease control rating [1]: 74%

Compound: COC(=O)NCc1cc(-c2ccn(-c3c(Br)cccc3Br)n2)ccc1C [compound 58]
- Test D disease control rating (Phakopsora pachyrhizi): 100%
- Test B disease control rating [1]: 68%

Compound: COC(=O)NCc1cc(-c2ccn(-c3c(Cl)cccc3I)n2)ccc1C [compound 59]
- Test D disease control rating (Phakopsora pachyrhizi): 87%
- Test B disease control rating [1]: 45%

Compound: COC(=O)NCc1cc(-c2ccn(-c3c(Cl)cccc3Br)n2)ccc1C [compound 60]
- Test D disease control rating (Phakopsora pachyrhizi): 100%
- Test B disease control rating [1]: 68%

Compound: COC(=O)NCc1cc(-c2ccn(-c3c(C)cccc3Br)n2)ccc1C [compound 61]
- Test D disease control rating (Phakopsora pachyrhizi): 97%
- Test B disease control rating [1]: 68%

Compound: COC(=O)NCc1cc(-c2ccn(-c3c(F)cc(OCF)cc3F)n2)ccc1C [compound 73]
- Test D disease control rating (Phakopsora pachyrhizi): 100%
- Test B disease control rating [1]: 100%

Compound: COC(=O)NCc1cc(-c2ccn(-c3c(F)cc(C4(C)CC4)cc3F)n2)ccc1C [compound 74]
- Test D disease control rating (Phakopsora pachyrhizi): 100%
- Test B disease control rating [1]: 100%

Compound: COC(=O)NCc1cc(-c2ccn(-c3c(F)cc(CF)cc3F)n2)ccc1C [compound 77]
- Test D disease control rating (Phakopsora pachyrhizi): 100%
- Test B disease control rating [1]: 100%

Compound: COC(=O)NCc1cc(-c2cn(-c3c(F)cc(C)cc3F)nn2)ccc1C [compound 119]
- Test D disease control rating (Phakopsora pachyrhizi): 0%
- Test B disease control rating [1]: 100%

Compound: COC(=O)NCc1cc(-c2cn(-c3c(Cl)cc(OC)cc3OC)nn2)ccc1C [compound 120]
- Test D disease control rating (Phakopsora pachyrhizi): 0%
- Test B disease control rating [1]: 0%

Compound: COC(=O)NCc1cc(-c2cn(-c3c(Cl)cc(OC)cc3Cl)nn2)ccc1C [compound 123]
- Test D disease control rating (Phakopsora pachyrhizi): 0%
- Test B disease control rating [1]: 0%

Compound: COC(=O)NCc1cc(-c2cn(-c3c(C)cc(OC)cc3C)nn2)ccc1C [compound 124]
- Test D disease control rating (Phakopsora pachyrhizi): 0%
- Test B disease control rating [1]: 0%

Compound: COC(=O)NCc1cc(-c2cn(-c3c(F)cc(I)cc3F)nn2)ccc1C [compound 125]
- Test D disease control rating (Phakopsora pachyrhizi): 0%
- Test B disease control rating [1]: 68%

Compound: COC(=O)NCc1cc(-c2cn(-c3c(F)cc(Br)cc3F)nn2)ccc1C [compound 126]
- Test D disease control rating (Phakopsora pachyrhizi): 0%
- Test B disease control rating [1]: 57%

Compound: COC(=O)NCc1cc(-c2cn(-c3c(OC)cc(OC)cc3OC)nn2)ccc1C [compound 127]
- Test D disease control rating (Phakopsora pachyrhizi): 0%
- Test B disease control rating [1]: 0%

Compound: COC(=O)NCc1cc(-c2cn(-c3c(Br)cc(OC)cc3Br)nn2)ccc1C [compound 128]
- Test D disease control rating (Phakopsora pachyrhizi): 0%
- Test B disease control rating [1]: 0%

Compound: COC(=O)NCc1cc(-c2cn(-c3c(Br)cc(OC)cc3[N+](=O)[O-])nn2)ccc1C [compound 129]
- Test D disease control rating (Phakopsora pachyrhizi): 0%
- Test B disease control rating [1]: 0%

Compound: COC(=O)NCc1cc(-c2cn(-c3c(F)cc(OC)cc3F)nn2)ccc1C [compound 130]
- Test D disease control rating (Phakopsora pachyrhizi): 0%
- Test B disease control rating [1]: 68%

Compound: COC(=O)NCc1cc(-c2ccn(-c3c(F)cc(C4OCCO4)cc3F)n2)ccc1C [compound 133]
- Test D disease control rating (Phakopsora pachyrhizi): 100%
- Test B disease control rating [1]: 99%

Compound: COC(=O)NCc1cc(-c2ccn(-c3c(Br)cc(I)cc3Br)n2)ccc1C [compound 136]
- Test D disease control rating (Phakopsora pachyrhizi): 59%
- Test B disease control rating [1]: 19%

Compound: CCc1cc(F)c(-n2ccc(-c3ccc(C)c(CNC(=O)OC)c3)n2)c(F)c1 [compound 144]
- Test D disease control rating (Phakopsora pachyrhizi): 100%
- Test B disease control rating [1]: 100%

Compound: CCCc1cc(F)c(-n2ccc(-c3ccc(C)c(CNC(=O)OC)c3)n2)c(F)c1 [compound 145]
- Test D disease control rating (Phakopsora pachyrhizi): 100%
- Test B disease control rating [1]: 100%

Compound: C=Cc1cc(F)c(-n2ccc(-c3ccc(C)c(CNC(=O)OC)c3)n2)c(F)c1 [compound 146]
- Test D disease control rating (Phakopsora pachyrhizi): 100%
- Test B disease control rating [1]: 100%

Compound: CC=Cc1cc(F)c(-n2ccc(-c3ccc(C)c(CNC(=O)OC)c3)n2)c(F)c1 [compound 147]
- Test D disease control rating (Phakopsora pachyrhizi): 100%
- Test B disease control rating [1]: 99%

Compound: COC(=O)NCc1cc(-c2ccn(-c3c(F)cc(N4CCN(C)CC4)cc3F)n2)ccc1C [compound 148]
- Test D disease control rating (Phakopsora pachyrhizi): 0%
- Test B disease control rating [1]: 0%

Compound: COC(=O)NCc1cc(-c2ccn(-c3c(F)cc(N4CCOCC4)cc3F)n2)ccc1C [compound 149]
- Test D disease control rating (Phakopsora pachyrhizi): 99%
- Test B disease control rating [1]: 83%

Compound: COC(=O)NCc1cc(-c2ccn(-c3c(F)cc(N4CCCC4)cc3F)n2)ccc1C [compound 150]
- Test D disease control rating (Phakopsora pachyrhizi): 0%
- Test B disease control rating [1]: 68%

Compound: COC(=O)NCc1cc(-c2ccn(-c3c(F)cc(N4CCCCC4)cc3F)n2)ccc1C [compound 151]
- Test D disease control rating (Phakopsora pachyrhizi): 19%
- Test B disease control rating [1]: 68%

Compound: COC(=O)NCc1cc(-c2ccn(-c3c(F)cc(N(C)C)cc3F)n2)ccc1C [compound 152]
- Test D disease control rating (Phakopsora pachyrhizi): 99%
- Test B disease control rating [1]: 98%
